Here are results for twelve molecules from ChEMBL document CHEMBL5215002, “Selective Inhibition of PTP1B by New Anthraquinone Glycosides from Knoxia valerianoides” (J Nat Prod, 2022).

Assay [1] has as its target T1, Tyrosine-protein phosphatase non-receptor type 1 (Homo sapiens, UniProt P18031).
T1 sequence (P18031 whole entry): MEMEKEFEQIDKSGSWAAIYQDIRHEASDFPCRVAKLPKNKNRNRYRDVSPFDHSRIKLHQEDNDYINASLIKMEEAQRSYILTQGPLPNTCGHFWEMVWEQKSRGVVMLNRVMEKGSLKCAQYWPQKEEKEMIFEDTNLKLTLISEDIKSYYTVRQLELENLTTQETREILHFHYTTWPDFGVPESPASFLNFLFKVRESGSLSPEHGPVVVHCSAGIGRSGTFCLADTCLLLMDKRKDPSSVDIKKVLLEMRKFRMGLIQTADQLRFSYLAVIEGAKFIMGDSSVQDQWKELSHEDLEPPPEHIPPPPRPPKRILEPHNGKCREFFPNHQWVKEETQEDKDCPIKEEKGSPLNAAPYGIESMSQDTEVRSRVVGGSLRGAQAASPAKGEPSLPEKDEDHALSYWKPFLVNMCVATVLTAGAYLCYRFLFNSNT
The assay is described as follows: Inhibition of N-terminal His-tagged recombinant human PTP1B expressed in Escherichia coli.

Another assay is filed under the species Homo sapiens. The assay can be described thus: Selectivity index, ratio of IC50 for inhibition of recombinant human TCPTP (1 to 314 residues) expressed in baculovirus infected insect cells to IC50 for inhibition of N-terminal His-tagged recombinant human PTP1B expressed in Escherichia coli.
Assay [2] has as its target T1, Tyrosine-protein phosphatase non-receptor type 1. The assay is described as follows: Mixed type inhibition of N-terminal His-tagged recombinant human PTP1B expressed in Escherichia coli using pNPP as substrate assessed as inhibition constant preincubated for 15 mins followed by substrate addition and measured after 15 mins by Dixon plot analysis.
The target in assay [3] is T2, Tyrosine-protein phosphatase non-receptor type 1 (Homo sapiens) (UniProt P18031).
T2 sequence (whole entry): T1 sequence (P18031 whole entry)
The assay can be described thus: Mixed type inhibition of N-terminal His-tagged recombinant human PTP1B expressed in Escherichia coli assessed as reduction in Vmax with increase in Km using varying concentrations of pNPP as substrate preincubated for 15 mins followed by substrate addition and measured after 15 mins by Lineweaver-Burk plot analysis. Conditions: time 30.0 min.

The target in assay [4] is T3, Tyrosine-protein phosphatase non-receptor type 2 (Homo sapiens, UniProt P17706).
T3 sequence (P17706 whole entry): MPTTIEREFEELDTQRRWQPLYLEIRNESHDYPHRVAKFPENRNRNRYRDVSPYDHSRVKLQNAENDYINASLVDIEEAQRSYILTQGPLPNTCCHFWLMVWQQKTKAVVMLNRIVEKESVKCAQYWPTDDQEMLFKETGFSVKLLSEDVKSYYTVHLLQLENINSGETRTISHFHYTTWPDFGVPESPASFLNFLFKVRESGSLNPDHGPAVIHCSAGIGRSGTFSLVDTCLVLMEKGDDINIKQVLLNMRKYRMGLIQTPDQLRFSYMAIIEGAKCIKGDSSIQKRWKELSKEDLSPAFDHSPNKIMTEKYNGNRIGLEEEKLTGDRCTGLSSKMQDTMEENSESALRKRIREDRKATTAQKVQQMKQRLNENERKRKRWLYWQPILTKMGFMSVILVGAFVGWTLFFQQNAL
The assay can be described thus: Inhibition of recombinant human TCPTP (1 to 314 residues) expressed in baculovirus-insect cells.

Assay [5] has as its target T4, Tyrosine-protein phosphatase non-receptor type 2 (Homo sapiens) (UniProt P17706).
T4 sequence (whole entry): T3 sequence (P17706 whole entry)
The assay is described as follows: Inhibition of recombinant human TCPTP (1 to 314 residues) expressed in baculovirus-insect cells at 100 uM relative to control.

The source made the active and inactive calls. The calls are words filed in the database; no cut-off is given here. Bounds are passed on as bounds.

A word on the IC50: it is the point on the concentration scale where inhibition reaches its midpoint. Broadly, the Ki is a measure of affinity in units of concentration, obtained from inhibition or displacement. The term inhibition denotes the relative decrease from the control value, in per cent. Take `Cc1c(O[C@@H]2O[C@H](CO[C@@H]3OC[C@@H](O)[C@H](O)[C@H]3O)[C@@H](O)[C@H](O)[C@H]2O)cc2c(c1O)C(=O)c1ccc(O)c(O)c1C2=O`: the IC50 in assay [1] came to 1.05 µM; in assay [4], 78 µM. In the assay filed under Homo sapiens, the Ratio IC50 stood at 74.3. In addition, in assay [2], the Ki is 1.21 µM. In assay [3], the inhibition entry is “Active”.
In the case of `Cc1c(O[C@@H]2O[C@H](CO[C@@H]3OC[C@@H](O)[C@H](O)[C@H]3O)[C@@H](O)[C@H](O)[C@H]2O)cc2c(c1O)C(=O)c1ccccc1C2=O`, in assay [1], the 50% inhibitory concentration (IC50) was 13.7 µM.
The same measure, in the same setting: with `COc1ccc2c(c1O)C(=O)c1cc(O[C@@H]3O[C@H](CO)[C@@H](O)[C@H](O)[C@H]3O)c(CO)c(O)c1C2=O` the figure was 3.05 µM; with `O=C1c2ccccc2C(=O)c2c1cc(O[C@@H]1O[C@H](CO)[C@@H](O)[C@H](O)[C@H]1O)c(CO)c2O`, 10.8 µM.
Regarding `COc1ccc2c(c1)C(=O)c1cc(O[C@@H]3O[C@H](CO[C@@H]4OC[C@@H](O)[C@H](O)[C@H]4O)[C@@H](O)[C@H](O)[C@H]3O)c(C)c(O)c1C2=O`, the half-inhibitory concentration (IC50) in assay [1] came out at 9.04 µM.
Regarding SODIUM ORTHOVANAD, in the assay filed under Homo sapiens, the Ratio IC50 stood at 0.67.
As for `COc1ccc2c(c1O)C(=O)c1cc(O[C@@H]3O[C@H](CO[C@@H]4OC[C@@H](O)[C@H](O)[C@H]4O)[C@@H](O)[C@H](O)[C@H]3O)c(CO)c(O)c1C2=O`, the half-maximal inhibitory concentration (IC50) in assay [1] was 3.52 µM.
Take `O=C1c2ccccc2C(=O)c2c1cc(O)c(CO[C@@H]1O[C@H](CO)[C@@H](O)[C@H](O)[C@H]1O)c2O`: the IC50 is 3.86 µM in assay [1] and greater than 100 µM in assay [4]. In the assay filed under Homo sapiens, the Ratio IC50 worked out at 25.9. In assay [2], the inhibition constant (Ki) came out at 3.02 µM. Besides, the inhibition in assay [5] was less than 20%. Also, the inhibition entry in assay [3] was “Active”.
Regarding `COc1ccc2c(c1)C(=O)c1cc(O[C@@H]3O[C@H](CO[C@@H]4OC[C@@H](O)[C@H](O)[C@H]4O)[C@@H](O)[C@H](O)[C@H]3O)c(CO)c(O)c1C2=O`, the IC50 in assay [1] was 11.3 µM; in assay [4], greater than 100 µM. In addition, the Ratio IC50 in the assay filed under Homo sapiens was 8.9. In assay [5], the inhibition is less than 20%.
Consider `COc1ccc2c(c1)C(=O)c1cc(O[C@@H]3O[C@H](CO)[C@@H](O)[C@H](O)[C@H]3O)c(CO)c(O)c1C2=O`, for which the results for the concentration for half-maximal inhibition (IC50) in assay [1] and in assay [4] were 1.56 µM and greater than 100 µM, respectively. Besides, the Ratio IC50 in the assay listed under Homo sapiens was 64.1. Moreover, in assay [5], the inhibition is less than 20%.
Turning to `COc1ccc2c(c1O)C(=O)c1cc(O[C@@H]3O[C@H](CO[C@@H]4OC[C@@H](O)[C@H](O)[C@H]4O)[C@@H](O)[C@H](O)[C@H]3O)c(C)c(O)c1C2=O`, the IC50 in assay [1] was 7.28 µM; in assay [4], greater than 100 µM. For the same molecule, the Ratio IC50 in the assay listed under Homo sapiens was found to be 13.7. In assay [5], the inhibition is 40%.
Take `COc1ccc2c(c1)C(=O)c1cc(O)c(CO[C@@H]3O[C@H](CO[C@@H]4OC[C@@H](O)[C@H](O)[C@H]4O)[C@@H](O)[C@H](O)[C@H]3O)c(O)c1C2=O`: the IC50 in assay [1] is 7.52 µM.
